Test results from ChEMBL document CHEMBL1145638, “Discovery of a novel submicromolar inhibitor of the lymphoid specific tyrosine phosphatase” (Bioorg Med Chem Lett, 2008).

Biological target: T1, Tyrosine-protein phosphatase non-receptor type 22 (Homo sapiens, UniProt Q9Y2R2)
T1 sequence (Q9Y2R2 whole entry): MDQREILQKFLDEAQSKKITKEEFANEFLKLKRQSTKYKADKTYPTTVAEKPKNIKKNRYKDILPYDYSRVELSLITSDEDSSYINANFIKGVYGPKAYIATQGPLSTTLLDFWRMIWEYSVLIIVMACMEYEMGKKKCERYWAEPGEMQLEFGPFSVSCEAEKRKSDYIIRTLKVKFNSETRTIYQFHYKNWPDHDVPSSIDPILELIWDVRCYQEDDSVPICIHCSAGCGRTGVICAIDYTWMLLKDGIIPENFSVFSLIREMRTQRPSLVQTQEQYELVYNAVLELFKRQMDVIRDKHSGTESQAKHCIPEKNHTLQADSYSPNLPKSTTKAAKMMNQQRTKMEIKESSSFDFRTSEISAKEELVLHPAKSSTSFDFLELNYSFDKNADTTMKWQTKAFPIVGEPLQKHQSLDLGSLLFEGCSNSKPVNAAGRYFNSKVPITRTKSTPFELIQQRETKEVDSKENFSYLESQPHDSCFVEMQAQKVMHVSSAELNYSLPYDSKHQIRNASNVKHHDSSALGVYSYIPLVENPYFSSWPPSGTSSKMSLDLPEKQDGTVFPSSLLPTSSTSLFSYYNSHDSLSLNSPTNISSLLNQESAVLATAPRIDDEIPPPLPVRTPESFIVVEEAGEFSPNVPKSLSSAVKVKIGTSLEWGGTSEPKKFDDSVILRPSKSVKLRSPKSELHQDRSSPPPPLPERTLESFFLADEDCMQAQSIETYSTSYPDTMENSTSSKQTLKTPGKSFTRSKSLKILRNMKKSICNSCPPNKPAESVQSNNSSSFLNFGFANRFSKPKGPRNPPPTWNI
Assay: Inhibition of lymphoid specific tyrosine phosphatase

`O=C(O)CN1C(=O)S/C(=C\c2ccc(-c3ccc(O)c(C(=O)O)c3)s2)C1=O` was tested, and the IC50 was 2.8 µM.

In the case of `O=C1CN(/N=C/c2ccc(-c3ccc(O)c(C(=O)O)c3)o2)C(=O)N1`, the IC50 is reported as greater than 44 µM.

In the case of `COC(=O)CCN1C(=O)S/C(=C\c2ccc(-c3ccc(O)c(C(=O)OC)c3)o2)C1=O`, the IC50 is reported as 44 µM.

`COC(=O)CCN1C(=O)S/C(=C\c2ccc(-c3ccc(O)c(C(=O)OC)c3)s2)C1=O` showed an IC50 greater than 44 µM.

With `O=C(O)CN1C(=O)CN(/N=C/c2ccc(-c3ccc(O)c(C(=O)O)c3)o2)C1=O` the IC50 was 36 µM.

Compound `O=C(O)CCN1C(=O)S/C(=C\c2ccc(-c3ccc(O)c(C(=O)O)c3)o2)C1=O` has an IC50 of 5.1 µM.

With `COC(=O)CN1C(=O)S/C(=C\c2ccc(-c3ccc(O)c(C(=O)OC)c3)s2)C1=O` the IC50 was greater than 44 µM.

With `O=C(O)C(Cc1ccccc1)N1C(=O)/C(=C/C2=c3ccccc3=CCC2)SC1=S` (stereo not given) the IC50 was 14 µM.

Compound `COC(=O)CN1C(=O)S/C(=C\c2ccc(-c3ccc(O)c(C(=O)O)c3)s2)C1=O` has an IC50 of 1.8 µM.

In the case of `COC(=O)c1cc(-c2ccc(/C=N/N3CC(=O)NC3=O)s2)ccc1O`, the IC50 is reported as greater than 44 µM.

`CC(C(=O)O)N1C(=O)/C(=C/C=C/c2ccco2)SC1=S` (stereo not given) showed an IC50 of 2.5 µM.

`Cc1ccccc1NC(=O)CN1C(=O)S/C(=C\c2cccn2-c2cccc(C(=O)O)c2)C1=O` showed an IC50 of 1.9 µM.

`Cc1ccc(NC(=O)CN2C(=O)S/C(=C\c3cccn3-c3cccc(C(=O)O)c3)C2=O)c(C)c1` showed an IC50 of 1 µM.

Compound `O=C(O)CN1C(=O)S/C(=C\c2ccc(-c3ccc(O)c(C(=O)O)c3)o2)C1=O` has an IC50 of 5.6 µM.

In the case of `O=C(O)CCN1C(=O)S/C(=C\c2ccc(-c3ccc(O)c(C(=O)O)c3)s2)C1=O`, the IC50 is reported as 5.9 µM.

In the case of `CC(C)C(C(=O)O)N1C(=O)/C(=C/C=C/c2ccco2)SC1=S` (stereo not given), the IC50 is reported as 1.9 µM.

`COC(=O)c1cc(-c2ccc(/C=C3\SC(=O)N(CC(=O)O)C3=O)o2)ccc1O` was tested, and the IC50 was greater than 44 µM.

With `COC(=O)c1cc(-c2ccc(/C=C3\SC(=O)N(CC(=O)O)C3=O)s2)ccc1O` the IC50 was 18 µM.

Compound `O=C(O)CN1C(=O)/C(=C/c2ccc(-c3ccc(O)c(C(=O)O)c3)s2)SC1=S` has an IC50 of 5.4 µM.

`Cc1cccc(C)c1NC(=O)CN1C(=O)S/C(=C\c2cccn2-c2cccc(C(=O)O)c2)C1=O` gave an IC50 of 4.8 µM.

For `COC(=O)CN1C(=O)S/C(=C\c2ccc(-c3ccc(O)c(C(=O)O)c3)o2)C1=O`, the IC50 was 4.8 µM.

`COC(=O)c1cc(-c2ccc(/C=C3\SC(=S)N(CC(=O)O)C3=O)o2)ccc1O` showed an IC50 of 21 µM.

`COC(=O)CN1C(=O)S/C(=C\c2ccc(-c3ccc(O)c(C(=O)OC)c3)o2)C1=O` was tested, and the IC50 was greater than 44 µM.

For `O=C1CN(/N=C/c2ccc(-c3ccc(O)c(C(=O)O)c3)s2)C(=O)N1`, the IC50 was 34 µM.

`COC(=O)c1cc(-c2ccc(/C=C3\SC(=O)N(CCC(=O)O)C3=O)o2)ccc1O` was tested, and the IC50 was 4.3 µM.

Compound `O=C(O)CN1C(=O)CN(/N=C/c2ccc(-c3ccc(O)c(C(=O)O)c3)s2)C1=O` has an IC50 greater than 44 µM.

With `O=C(O)COc1ccc(-c2ccc(/C=C3\SC(=S)N(CC(=O)O)C3=O)o2)cc1C(=O)O` the IC50 was greater than 44 µM.

Work on `COC(=O)c1cc(-c2ccc(/C=C3\SC(=S)N(CC(=O)O)C3=O)s2)ccc1O` yielded an IC50 of 4.3 µM.

`COC(=O)c1cc(-c2ccc(/C=N/N3CC(=O)NC3=O)o2)ccc1O` gave an IC50 greater than 44 µM.

`O=C(O)CCN1C(=O)/C(=C\c2ccc(-c3nc4ccccc4s3)o2)SC1=S` was tested, and the IC50 was 0.98 µM.

In the case of `O=C(O)CN1C(=O)/C(=C/c2ccc(-c3ccc(O)c(C(=O)O)c3)o2)SC1=S`, the IC50 is reported as 8.7 µM.

`COC(=O)c1cc(-c2ccc(/C=C3\SC(=O)N(CCC(=O)O)C3=O)s2)ccc1O` gave an IC50 of 0.39 µM.

In the case of `O=C(O)CCCN1C(=O)/C(=C\c2ccc(-c3nc4ccccc4s3)o2)SC1=S`, the IC50 is reported as 1.3 µM.

Compound `Cc1ccc(NC(=O)CN2C(=O)S/C(=C\c3ccc(-c4cccc(C(=O)O)c4C)o3)C2=O)cc1` (stereo in doubt; form 1) has an IC50 of 3.3 µM.

In the case of `Cc1ccc(NC(=O)CN2C(=O)S/C(=C\c3ccc(-c4cccc(C(=O)O)c4C)o3)C2=O)cc1` (stereo in doubt; form 2), the IC50 is reported as 3.5 µM.
